Here are results for ten compounds from PubChem BioAssay (NCI).

Several values for one entry are separate records, joined by “and”; a condition that tells them apart may be missing. Equal values may be shown once.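 Values below derive from 48-hour exposures of cells grown in 96-well plates, with endpoints linearly interpolated between the two concentrations bracketing the appropriate inhibition level. At the GI50, growth is halved. TGI is the concentration that stops growth completely.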 Where only a bound is given, the exact number is not on record here.

Among the test systems are A498 renal; MCF7 breast; EKVX NSCLC; PC-3 prostate; SNB-75 CNS; HOP-92 NSCLC; CCRF-CEM leukemia; HL-60(TB) leukemia; NCI/ADR-RES ovarian; OVCAR-4 ovarian; HCT-15 colon; RPMI-8226 leukemia; M14 melanoma; MOLT-4 leukemia; MDA-N.
Assay in all cases: NCI tumour cell line growth inhibition, 48 h

For `CCOC1=NC(C(F)(F)F)(C(F)(F)F)N=C(N2CCCCC2)O1`, the TGI in the test on A498 renal, in the test with MCF7 breast, in the test on EKVX NSCLC, in the test on PC-3 prostate, with SNB-75 CNS and in the test with HOP-92 NSCLC was above 100 µM throughout. Moreover, the TGI in the test with CCRF-CEM leukemia, in the test with HL-60(TB) leukemia, in the test on NCI/ADR-RES ovarian, in the test with OVCAR-4 ovarian, with HCT-15 colon and in the test with RPMI-8226 leukemia was above 100 µM in each case. Moreover, the TGI in the test on M14 melanoma and in the test with MOLT-4 leukemia was above 100 µM throughout.
Consider `COc1cc2c3c(c1OC)C(=O)C(=O)C1=C3N(CCC1)CC2`, for which the TGI was 92.6 µM in the test on A498 renal; 37.2 µM in the test with MCF7 breast; 64.8 µM in the test with EKVX NSCLC; above 100 µM in the test with PC-3 prostate; 60.4 µM in the test on HOP-92 NSCLC; 80.4 µM in the test with CCRF-CEM leukemia. Also, the TGI in the test on HL-60(TB) leukemia is 70.4 µM; with NCI/ADR-RES ovarian it was above 100 µM; in the test on OVCAR-4 ovarian, 62.2 µM; in the test on HCT-15 colon, above 100 µM; with M14 melanoma, 70 µM; with MOLT-4 leukemia, 56.3 µM.
With `Clc1nc(Nc2nc3ccccc3[nH]2)nc(Cl)c1-c1ccccc1`, the TGI with A498 renal worked out at 60.6 µM; with EKVX NSCLC, 71.4 µM; in the test with PC-3 prostate it was 60.1 µM; in the test with SNB-75 CNS, 39.7 µM; with HOP-92 NSCLC it was 35 µM; in the test on CCRF-CEM leukemia, 66.5 µM. Further, the TGI is above 100 µM in the test on HL-60(TB) leukemia; 92.7 µM with NCI/ADR-RES ovarian; 32.8 µM in the test with OVCAR-4 ovarian; 23.7 µM in the test with MDA-N; 34.2 µM in the test on HCT-15 colon; above 100 µM in the test with RPMI-8226 leukemia. Besides, the results for the TGI in the test with M14 melanoma and in the test with MOLT-4 leukemia were 98 µM and above 100 µM, respectively.
Take `O=c1oc2ccccc2n1CCCn1c(=O)oc2ccccc21`: the TGI with A498 renal, in the test on MCF7 breast, in the test on EKVX NSCLC, in the test on PC-3 prostate, in the test on SNB-75 CNS and in the test on CCRF-CEM leukemia was above 100 µM in each case. For the same compound, the TGI with HL-60(TB) leukemia, in the test on NCI/ADR-RES ovarian, in the test on HCT-15 colon, with RPMI-8226 leukemia, in the test with M14 melanoma and in the test on MOLT-4 leukemia was above 100 µM in each case.
For the compound `CO/N=C(\C(=O)[N-][n+]1cnn(CC(=O)O)c1)c1csc(N)n1`, the TGI in the test with MCF7 breast, in the test with EKVX NSCLC, with SNB-75 CNS, in the test with HOP-92 NSCLC, with CCRF-CEM leukemia and in the test with HL-60(TB) leukemia was above 10 µM throughout. Further, the TGI in the test with OVCAR-4 ovarian, with MDA-N, in the test with HCT-15 colon, in the test on RPMI-8226 leukemia, in the test on M14 melanoma and with MOLT-4 leukemia was above 10 µM throughout.
As to `O=C(N[C@@H](Cc1ccccc1)B(O)O)[C@H](Cc1cccc2ccccc12)NC(=O)N1CCOCC1`, the TGI in the test with A498 renal is 0.212 µM; with MCF7 breast it was 0.352 µM; in the test on EKVX NSCLC, 0.923 µM and 3.66 µM; in the test on PC-3 prostate it was 0.106 µM and 0.134 µM; in the test with SNB-75 CNS it was 0.0558 µM; in the test on HOP-92 NSCLC it was 0.00744 µM. In addition, the TGI with CCRF-CEM leukemia is 0.0022 µM; in the test with NCI/ADR-RES ovarian, above 100 µM; in the test with OVCAR-4 ovarian, 0.0301 µM and 0.204 µM; with HCT-15 colon, 0.61 µM and 0.405 µM; with RPMI-8226 leukemia, 0.00414 µM; in the test with M14 melanoma it was 0.00405 µM. Besides, the TGI in the test with MOLT-4 leukemia was 0.00366 µM and 0.0107 µM. Besides, the GI50 with EKVX NSCLC was 0.129 µM; with NCI/ADR-RES ovarian, 7.31 µM.
On to `COc1ccc2c(c1)C=C(C(C)(C)C)NS2(=O)=O`, for which the TGI with A498 renal, with EKVX NSCLC, in the test on SNB-75 CNS, in the test on HOP-92 NSCLC, with CCRF-CEM leukemia and in the test on HL-60(TB) leukemia was above 100 µM throughout. The TGI in the test on OVCAR-4 ovarian, in the test on HCT-15 colon, with M14 melanoma and with MOLT-4 leukemia was above 100 µM in each case.
Regarding `CC(c1ccccc1)C(O)S(=O)(=O)O` (stereo not drawn), the TGI with A498 renal, with EKVX NSCLC, in the test with SNB-75 CNS, with HOP-92 NSCLC, in the test on CCRF-CEM leukemia and in the test with OVCAR-4 ovarian was above 100 µM each time. Moreover, the TGI with HCT-15 colon, in the test on RPMI-8226 leukemia, in the test with M14 melanoma and in the test on MOLT-4 leukemia was above 100 µM in each case.
For `NS(=O)(=O)c1ccc(N2C(=O)C(=O)N(c3ccccc3)C2=S)cc1`, the TGI in the test with A498 renal is above 100 µM; in the test with EKVX NSCLC it was above 100 µM; with PC-3 prostate, above 100 µM; with SNB-75 CNS, above 100 µM; in the test with HOP-92 NSCLC it was 95.9 µM; in the test on CCRF-CEM leukemia it was above 100 µM. For the same compound, the TGI with HL-60(TB) leukemia, in the test on NCI/ADR-RES ovarian, in the test on OVCAR-4 ovarian, with MDA-N, with HCT-15 colon and with RPMI-8226 leukemia was above 100 µM throughout. This compound came in with a TGI in the test on MOLT-4 leukemia above 100 µM.
Consider `Nc1nc(Cc2ccccc2)nc(Cc2ccccc2)c1-c1ccccc1`, for which the TGI is 46.7 µM in the test with A498 renal; above 100 µM in the test with EKVX NSCLC; 77.7 µM in the test with PC-3 prostate; 59.6 µM in the test with HOP-92 NSCLC; 60.5 µM in the test with HL-60(TB) leukemia; 55 µM in the test on NCI/ADR-RES ovarian. The TGI is above 100 µM with OVCAR-4 ovarian; 38.8 µM in the test on MDA-N; 84.3 µM in the test on HCT-15 colon; above 100 µM with M14 melanoma; 59.7 µM with MOLT-4 leukemia.
